Laboratory results: publication PMC8739290, “A phase 1b study of erlotinib and momelotinib for the treatment of EGFR-mutated, tyrosine kinase inhibitor-naive metastatic non-small cell lung cancer” (Cancer Chemotherapy and Pharmacology, 2021)
Read-outs that look alike come from different tables or passages of the source.

Experiments:
[1] = Pharmacokinetics of erlotinib during monotherapy and in combination with momelotinib (LC–MS/MS); assay type: in vivo, human; details: for Cmax: mean (%CV)
Description: (§1) Prior to momelotinib dosing, blood samples were collected before a dose of erlotinib and at 0.5, 1, 2, 4, 6, 8, and 24 h after erlotinib dosing. On day 15 of cycle 1, blood samples were collected at the same time points after dosing with momelotinib and erlotinib (the 24-h time point was only applicable for momelotinib QD dosing). The concentrations of momelotinib and its major metabolite GS-644603 were evaluated using a liquid chromatography-tandem mass spectrometry (LC–MS/MS) assay with solid phase extraction validated over the range of 0.5–1000 ng/mL for each analyte. The concentration of erlotinib was determined using an LC–MS/MS assay with protein precipitation validated over the range of 5–5000 ng/mL. […] Pharmacokinetic (PK) parameters were estimated using standard noncompartmental methods with Phoenix WinNonlin® software (Certara, Princeton, NJ).
(§2) Any patient who received ≥ 1 dose of study drug was included in the safety and efficacy analyses. Descriptive statistics were used to summarize study characteristics, DLTs, and AEs, including by dose level. ORR was summarized with corresponding two-sided 90% exact confidence intervals (CIs) using the binomial distribution. Both OS and PFS were summarized using Kaplan–Meier estimates and corresponding 90% CIs. Patient concentration data and PK parameters for erlotinib, momelotinib, and its major metabolite GS-644603 were summarized by dose level using descriptive statistics.

[2] = tested on: EGFR-mutated NSCLC; experiment: Efficacy in phase 1b study per RECIST version 1.1 (ORR, DoR, PFS, OS); assay type: in vivo, human
Description: Imaging by computed tomography (CT) with contrast was performed at baseline, every 8 weeks during year 1 and every 12 weeks thereafter. If a patient had brain metastases, brain magnetic resonance imaging (MRI) was repeated on the same schedule.

[3] = tested on: patients with KRAS-mutated NSCLC; design: method as in PMID 30087028; details: cited from earlier work
[4] = tested on: pSTAT3 in IL-6–stimulated lymphocytes; experiment: pSTAT3 phospho-flow cytometry on whole blood of patients after 2 weeks on momelotinib (exploratory); assay type: cell-based, human; details: whole blood of 8 patients, data not shown
[5] = tested on: JAK1/2-mediated STAT3 phosphorylation in IL-6–stimulated human peripheral blood mononuclear cells; details: read-out: mean half maximal effective concentration, inhibition of JAK1/2-mediated STAT3 phosphorylation; cited from earlier work
[6] = tested on: pancreatic adenocarcinoma; design: method as in PMID 30105668; details: momelotinib added to nab-paclitaxel and gemcitabine; cited from earlier work
[7] = tested on: patients with EGFR TKI-naive, EGFR-mutated NSCLC; experiment: Safety in phase 1b dose-escalation study: DLTs and adverse events (CTCAE version 4.03)
Source text: This was an open-label, dose-escalation phase 1b study, which comprised a dose-escalation phase, followed by a planned, randomized, expansion phase of the combination of erlotinib plus momelotinib vs. erlotinib alone (ClinicalTrials.gov Identifier: NCT02206763). An erlotinib lead-in was utilized during the dose-escalation phase since erlotinib’s toxicities of rash and diarrhea onset in the first 2–3 weeks of treatment allowing for (i) dose adjustment for erlotinib-related toxicities as per clinical standard of care prior to combination with momelotinib; (ii) examination of the impact of momelotinib on erlotinib steady-state pharmacokinetics; and (iii) accurate assessment of toxicity attribution during the combination treatment period.
Patients were screened within 28 days of the start of study treatment and cycles were defined as 28 days. Erlotinib was self-administered orally once daily (QD) at least 1 h before or 2 h after a meal, with doses permitted at 50, 75, 100, or 150 mg. Dose reductions were permitted for management of erlotinib-related toxicity such as rash and diarrhea. Momelotinib was dose escalated following a standard 3 + 3 design starting at 100 mg QD (Table 1). Momelotinib was self-administered orally QD or twice daily (BID) (Table 1), with the latter planned dosing frequency differing from that used in myelofibrosis trials. Study treatment continued until disease progression, unacceptable toxicity, or consent withdrawal.
The primary endpoint was the incidence of dose-limiting toxicities (DLTs). Physical exams and safety labs were performed on day 1 of cycle 1, day 15 of cycle 1, and on the first day of each cycle thereafter. Adverse events (AEs) were coded using the Medical Dictionary for Regulatory Activities (MedDRA), graded according to the Common Terminology Criteria for Adverse Events (CTCAE) version 4.03, and collected until 30 days after the last dose of the study treatment.
DLTs were assessed during the first 28 days of combined erlotinib and momelotinib treatment and defined as clinically significant AEs related to study treatment. Prespecified hematologic DLTs only included grade 4 neutropenia (absolute neutrophil count [ANC] < 500/μL) and grade 4 thrombocytopenia (platelet count < 25,000/μL). Important exceptions for related grade 3 nonhematologic toxicities included grade 3 nausea or vomiting ≤ 48 h duration, diarrhea or rash that improved to grade 0 to 1 within 21 days of interruption of erlotinib, and alanine aminotransferase (ALT) or aspartate aminotransferase (AST) ≥ 5 times the upper limit of normal (ULN) that improved to ≤ 3 times the ULN within 21 days. Treatment delays of ≥ 28 days due to a treatment-emergent AEs (TEAEs) were also considered DLTs.
as §2

[8] = Steady-state pharmacokinetics of momelotinib and metabolite GS-644603 (LC–MS/MS, noncompartmental); assay type: in vivo, human; details: for half-life / Cmax / Tmax: day 15 of cycle 1; for half-life / Tmax: median (Q1, Q3); for Cmax: mean (%CV)
Description: as §1, §2

[9] = tested on: patients with EGFR-mutated NSCLC; details: erlotinib monotherapy, cited from earlier work
[10] = tested on: aldehyde oxidase; design: method as in PMID 32393528; details: cited from earlier work
[11] = tested on: STAT3 signaling in EGFR-mutant cell lines; design: method as in PMID 25065853, PMID 22712764; details: via autocrine- and paracrine-secreted factors such as IL-6; cited from earlier work
[12] = tested on: EGFR-mutated NSCLC lines; design: method as in PMID 18060032; details: multiple EGFR-mutated NSCLC lines; cited from earlier work
[13] = tested on: HCC827 xenograft model; design: method as in doi:10.1158/1538-7445.AM2018-2938; details: cited from earlier work
[14] = tested on: PC-9 xenograft tumors and EGFR-mutant transgenic mice; design: method as in PMID 24238495; details: cited from earlier work
[15] = human, in vivo, oral, momelotinib analyte, momelotinib 100 mg QD + erlotinib, n = 2
[16] = human, in vivo, oral, momelotinib analyte, momelotinib 200 mg QD + erlotinib, n = 2
[17] = momelotinib 200 mg QD vs 100 mg QD, with erlotinib, momelotinib analyte
[18] = with erlotinib, compared with ref 35
[19] = randomized phase 3 study, ref 33
[20] = erlotinib + momelotinib, all dose levels, n = 11

Structure (SMILES): N#CCNC(=O)c1ccc(-c2ccnc(Nc3ccc(N4CCOCC4)cc3)n2)cc1 [momelotinib]
- impact of momelotinib on the PK of erlotinib ([1]; momelotinib 100 mg QD, 200 mg QD, 100 mg BID): no impact
- reductions from baseline in sum of diameters of target lesions, range ([2]; momelotinib + erlotinib, across dose levels): 23.1 to 71.7%
- mean best percentage change in the sum of diameters of target lesions ([2]; momelotinib + erlotinib, across dose levels, N = 11): −42.5 ± 17.1%
- overall response rate (ORR), confirmed, all partial ([2]; momelotinib + erlotinib, all dose levels, 6 of 11 patients, 90% CI 27.1–80.0): 54.5%
- progressive disease (PD) as best response ([2]; momelotinib + erlotinib, 1 patient, dose level 2B): 9.1%
- stable disease ([2]; momelotinib + erlotinib, 4 of 11 patients): 36.4%
- median duration of response (DoR) ([2]; momelotinib + erlotinib, 90% CI 4.4–9.6): 7.2 months
- median PFS ([2]; momelotinib + erlotinib, Kaplan–Meier, 90% CI 6.2–12.4): 9.2 months
- median OS ([2]; momelotinib + erlotinib, data finalization April 24, 2017): not reached
- longest DoR ([2]; patient at dose level 2B, momelotinib 100 mg BID + erlotinib): 11.2 months
- efficacy vs historical control trametinib monotherapy ([3]; momelotinib added to trametinib, KRAS-mutated NSCLC): did not improve efficacy
- neutropenia ([3]; momelotinib dosed up to 150 mg BID in combination with trametinib): no neutropenia event
- pSTAT3 inhibition in IL-6–stimulated lymphocytes ([4]; after 2 weeks on treatment): temporarily inhibited pSTAT3 shortly after dosing
- correlation between total plasma momelotinib concentration and pSTAT3 inhibition [4]: no correlation
- EC50 [5]: 259 nM
- efficacy vs historical control chemotherapy [6]: did not improve efficacy
- grade 1 reactivation of hepatitis B ([7]; 1 year after start of momelotinib + erlotinib, led to discontinuation of both): 1 patient
- treatment-related deaths ([7]; all dose levels, momelotinib + erlotinib): no treatment-related deaths observed
- dose interruptions of momelotinib ([7]; human, in vivo): 5 n
- dose reductions of momelotinib (due to AEs) ([7]; human, in vivo): 2 n
- patients who discontinued momelotinib for AEs ([7]; human, in vivo): 27.3%
- maximum tolerated dose (MTD) of momelotinib ([7]; in combination with standard dosing of erlotinib, 3 + 3 design, DLTs in first 28 days): 200 mg QD
- half-life ([8]; human, blood, oral, momelotinib analyte, momelotinib 100 mg BID + erlotinib, n = 4): 8.6 h
- Cmax ([8]; human, in vivo, oral, momelotinib analyte, momelotinib 100 mg BID + erlotinib, n = 4): 884 ng/mL
- Cmax [8, 15]: 528 ng/mL
- half-life [8, 15]: 11.8 h
- Cmax [8, 16]: 852 ng/mL
- half-life [8, 16]: 10.2 h
- Tmax ([8]; human, in vivo, oral, momelotinib analyte, momelotinib 200 mg QD + erlotinib, n = 2, read-out: Tmax): 1.5 h
- dose proportionality of Cmax [8, 17]: slightly less than dose-proportional increase
- dose proportionality of exposure (AUCtau) [8, 17]: slightly more than dose-proportional increase
- Tmax ([8]; momelotinib analyte, momelotinib 100 mg BID + erlotinib, n = 4): 1.0 (1.0, 1.5) h
- Tmax ([8]; momelotinib analyte, momelotinib 100 mg QD + erlotinib, n = 2): 1.0 (1.0, 1.0) h
- time to momelotinib peak concentration after dosing ([8]; steady state, day 15 of cycle 1, with erlotinib): 1 to 2 h
- momelotinib maximum concentration and exposure compared with earlier reports [8, 18]: higher than previously reported
- momelotinib terminal elimination half-life compared with earlier reports [8, 18]: prolonged

Structure (SMILES): C#Cc1cccc(Nc2ncnc3cc(OCCOC)c(OCCOC)cc23)c1 [erlotinib]
- erlotinib exposure (Cmax and AUCtau), monotherapy vs combination ([1]; day 1 of cycle 1 vs day 15 of cycle 1 with momelotinib, all momelotinib dose level groups): comparable
- Cmax ([1]; erlotinib monotherapy, Day 1, dose level 2A cohort, erlotinib 150 mg QD, n = 3): 2040.0 (42.5) ng/mL
- Cmax ([1]; erlotinib with momelotinib 100 mg BID, Day 15, erlotinib 150 mg QD, n = 5): 1782.0 (17.3) ng/mL
- Cmax ([1]; erlotinib with momelotinib 200 mg QD, Day 15, erlotinib 150 mg QD, n = 2): 1740.0 (17.9) ng/mL
- Cmax ([1]; human, in vivo, oral, erlotinib monotherapy, Day 1, dose level 1 cohort, erlotinib 150 mg QD (1 patient 100 mg QD), n = 3, read-out: Cmax): 1810 ng/mL
- neutropenia rate ([9]; randomized phase 3 study, ref 2): 0%
- decreased neutrophils rate [9, 19]: 1.8%
- neutropenia rate [9, 19]: 4.5%
- neutropenia rate ([9]; randomized phase 3 study, ref 34): 6%
- ANCs less than < 1000/mm^3 (grade 3 or greater) [9]: rarely observed
- ORR, range over prior studies [9]: 62.7 to 83%
- median PFS, range over prior studies [9]: 9.7 to 11 months
- inhibition of aldehyde oxidase [10]: potent inhibitor
- patients who discontinued erlotinib due to AEs ([7]; 2 of 11 patients: grade 4 neutropenia, grade 1 hepatitis B): 18.2%
- patients with dose reductions of erlotinib (all for AEs) ([7]; across all dose levels, with momelotinib): 4 patients
- diarrhea considered related to erlotinib [7, 20]: 63.6%
- dry skin considered related to erlotinib [7, 20]: 54.5%
- paronychia considered related to erlotinib [7, 20]: 54.5%
- effect on STAT3 signaling [11]: induce feedback activation of STAT3 signaling

Structure (SMILES): CC(C)(C)c1nc2c3ccc(F)cc3c3c(=O)[nH]ccc3c2[nH]1 [P6]
- effect on cell cycle [12]: cell-cycle arrest at the G2/M phase
- effect on colony formation [12]: suppressed colony formation
- effect on phosphorylated-STAT3 (pSTAT3) [12]: uniformly abrogated pSTAT3

Structure (SMILES): N#CCC1(n2cc(-c3ncnc4[nH]ccc34)cn2)CN(C2CCN(C(=O)c3ccnc(C(F)(F)F)c3F)CC2)C1 [itacitinib]
- single-agent activity ([13]; HCC827 xenograft model): independent activity
- tumor growth inhibition in combination ([13]; itacitinib in combination with erlotinib or osimertinib): synergistic tumor growth inhibition

Structure (SMILES): Cc1cc(Nc2nc(N[C@@H](C)c3ncc(F)cn3)ncc2Cl)n[nH]1 [AZD1480]
- single-agent activity ([14]; PC-9 xenograft tumors and EGFR-mutant transgenic mice): independent activity
- number of lung tumors [14]: decreased number of lung tumors
- overall survival [14]: improved overall survival
